Values joined by “and” are separate entries in the source; they are usually repeats but may differ in a detail not shown here. Equal entries are not always repeated. Inconclusive results and toxic doses are left out. Cut-off read from the data, not from the text of the source: active = T/C of 150% or more; inactive = T/C below 125%.
Tested on: L1210 leukemia ip in BDF1 mice, survival T/C
Assay: NCI In Vivo Anticancer Drug Screen. Data for tumor model L1210 Leukemia (intraperitoneal) in B6D2F1 (BDF1) mice
Conditions: endpoint: mean survival time, higher = longer survival
In short: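 Value reflects the ratio of survival in compound-treated mice to survival in vehicle-treated controls, with both groups carrying the same transplanted tumor.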

[1] = dose: 50.0 mg/kg/injection, schedule: Q01DX001 (ip), vehicle: saline
[2] = dose: 100.0 mg/kg/injection, schedule: Q01DX001 (ip), vehicle: saline
[3] = dose: 200.0 mg/kg/injection, schedule: Q01DX001 (ip), vehicle: saline
[4] = dose: 400.0 mg/kg/injection, schedule: Q01DX001 (ip), vehicle: saline
[5] = dose: 100.0 mg/kg/injection, schedule: Q04DX003 (ip), vehicle: Klucel (hydroxypropylcellulose) (HPC)
[6] = dose: 100.0 mg/kg/injection, schedule: Q04DX003 (ip), vehicle: saline with Tween-80
[7] = dose: 200.0 mg/kg/injection, schedule: Q04DX003 (ip), vehicle: saline with Tween-80
[8] = dose: 400.0 mg/kg/injection, schedule: Q04DX003 (ip), vehicle: saline with Tween-80

Measured: T/C

O=C(Nc1cccc(C2=NCCN2)c1)c1cccc(C(=O)Nc2cccc(C3=NCCN3)c2)c1
inactive: dose: 15.0 mg/kg/injection, schedule: Q01DX Z (ip), vehicle: carboxymethylcellulose (CMC) 103 % of control | dose: 31.0 mg/kg/injection, schedule: Q01DX Z (ip), vehicle: carboxymethylcellulose (CMC) 92 % of control | dose: 62.0 mg/kg/injection, schedule: Q01DX Z (ip), vehicle: carboxymethylcellulose (CMC) 92 % of control

CC(O)c1ccc[n+]([O-])c1 (stereo unspecified)
inactive: dose: 100.0 mg/kg/injection, schedule: Q01DX009 (ip), vehicle: saline 93 % of control | dose: 200.0 mg/kg/injection, schedule: Q01DX009 (ip), vehicle: saline 96 % of control | dose: 400.0 mg/kg/injection, schedule: Q01DX009 (ip), vehicle: saline 96 % of control

O=C(O)C1C(C(=O)O)C2(c3ccccc3)C(=O)C1(c1ccccc1)C(c1ccccc1)=C2c1ccccc1 (stereo unspecified)
inactive: dose: 100.0 mg/kg/injection, schedule: Q01DX001 (ip), vehicle: saline with Tween-80 89 % of control | dose: 200.0 mg/kg/injection, schedule: Q01DX001 (ip), vehicle: saline with Tween-80 110 % of control | dose: 400.0 mg/kg/injection, schedule: Q01DX001 (ip), vehicle: saline with Tween-80 100 % of control

C=C1C(=O)OC2C1CCC1(C)CCCC(=C)C21O (stereo unspecified)
inactive: dose: 25.0 mg/kg/injection, schedule: Q04DX002 (ip), vehicle: saline 105 % of control | dose: 50.0 mg/kg/injection, schedule: Q04DX002 (ip), vehicle: saline 102 % of control | dose: 100.0 mg/kg/injection, schedule: Q04DX002 (ip), vehicle: saline 93 % of control and 97 % of control | dose: 200.0 mg/kg/injection, schedule: Q04DX002 (ip), vehicle: saline 90 % of control

CC(=O)N1C(=O)/C(=C\c2cc3c(cc2Br)OCO3)c2cc3c(cc21)OCO3
inactive: [1] 118 % of control | [2] 100 % of control | [3] 106 % of control | [4] 106 % of control

OCCS
inactive: dose: 25.0 mg/kg/injection, schedule: Q01DX001 (ip), vehicle: saline 105 % of control | dose: 44.0 mg/kg/injection, schedule: Q01DX001 (ip), vehicle: saline 95 % of control | [1] 97 % of control | dose: 66.0 mg/kg/injection, schedule: Q01DX001 (ip), vehicle: saline 105 % of control | [2] 100 % of control and 103 % of control | dose: 150.0 mg/kg/injection, schedule: Q01DX001 (ip), vehicle: saline 103 % of control | [3] 102 % of control and 105 % of control

O=C(OCC1OC(n2nc3ccnc(Cl)c3n2)C(OC(=O)c2ccccc2)C1OC(=O)c1ccccc1)c1ccccc1 (stereo unspecified)
inactive: dose: 50.0 mg/kg/injection, schedule: Q01DX005 (ip), vehicle: saline 105 % of control | dose: 100.0 mg/kg/injection, schedule: Q01DX005 (ip), vehicle: saline 102 % of control | dose: 200.0 mg/kg/injection, schedule: Q01DX005 (ip), vehicle: saline 110 % of control

CN(C)[C@@H]1C(=O)C(C(=O)NCNc2nc3n[nH]nc3c(=O)[nH]2)=C(O)[C@@]2(O)C(=O)C3=C(O)c4c(O)cccc4[C@@](C)(O)[C@H]3C[C@@H]12
inactive: dose: 12.5 mg/kg/injection, schedule: Q01DX009 (ip), vehicle: acetone 98 % of control | dose: 25.0 mg/kg/injection, schedule: Q01DX009 (ip), vehicle: acetone 104 % of control | dose: 50.0 mg/kg/injection, schedule: Q01DX009 (ip), vehicle: acetone 122 % of control | [2] 102 % of control | dose: 100.0 mg/kg/injection, schedule: Q01DX009 (ip), vehicle: acetone 117 % of control | [3] 96 % of control | dose: 200.0 mg/kg/injection, schedule: Q01DX009 (ip), vehicle: acetone 122 % of control | [4] 105 % of control

O=C(N/N=C/c1ccccc1O)N/N=C/c1ccccc1O
inactive: dose: 50.0 mg/kg/injection, schedule: Q04DX003 (ip), vehicle: Klucel (hydroxypropylcellulose) (HPC) 96 % of control | [5] 90 % of control | dose: 200.0 mg/kg/injection, schedule: Q04DX003 (ip), vehicle: Klucel (hydroxypropylcellulose) (HPC) 88 % of control

O=C(COc1ccc(Cl)cc1Cl)Nc1ncn[nH]1
inactive: dose: 100.0 mg/kg/injection, schedule: Q01DX001 (ip), vehicle: Klucel (hydroxypropylcellulose) (HPC) 101 % of control | dose: 200.0 mg/kg/injection, schedule: Q01DX001 (ip), vehicle: Klucel (hydroxypropylcellulose) (HPC) 104 % of control | dose: 400.0 mg/kg/injection, schedule: Q01DX001 (ip), vehicle: Klucel (hydroxypropylcellulose) (HPC) 95 % of control

O=C(O)c1ccc2cc(O)ccc2c1
inactive: dose: 100.0 mg/kg/injection, schedule: Q04DX003 (ip), vehicle: saline 92 % of control | dose: 200.0 mg/kg/injection, schedule: Q04DX003 (ip), vehicle: saline 98 % of control | dose: 400.0 mg/kg/injection, schedule: Q04DX003 (ip), vehicle: saline 97 % of control

CC(C)(C)CC(C)(C)c1ccc(OCCOc2ccc(C(=O)Nc3ccc(NC(=O)c4ccc5ccccc5c4O)cc3)cc2)cc1
inactive: [6] 105 % of control | [7] 90 % of control | [8] 90 % of control

CCCCCCCCCCCCOC(=O)C[n+]1cccc(C(=O)NC)c1
inactive: dose: 12.5 mg/kg/injection, schedule: Q04DX003 (ip), vehicle: saline with Tween-80 101 % of control | dose: 25.0 mg/kg/injection, schedule: Q04DX003 (ip), vehicle: saline with Tween-80 97 % of control | dose: 50.0 mg/kg/injection, schedule: Q04DX003 (ip), vehicle: saline with Tween-80 95 % of control

O=C(OCc1ccccc1CN1CCOCC1)c1cccc(Br)c1
inactive: dose: 25.0 mg/kg/injection, schedule: Q04DX002 (ip), vehicle: Klucel (hydroxypropylcellulose) (HPC) 93 % of control | dose: 50.0 mg/kg/injection, schedule: Q04DX002 (ip), vehicle: Klucel (hydroxypropylcellulose) (HPC) 95 % of control and 108 % of control | dose: 100.0 mg/kg/injection, schedule: Q04DX002 (ip), vehicle: Klucel (hydroxypropylcellulose) (HPC) 108 % of control | dose: 200.0 mg/kg/injection, schedule: Q04DX002 (ip), vehicle: Klucel (hydroxypropylcellulose) (HPC) 108 % of control and 92 % of control

CCOC(=O)/C(=N\O)C(C)(C)c1ccnc2ccccc12
inactive: [6] 86 % of control | [7] 88 % of control | [8] 95 % of control

CCOC(=O)CC(C)(C)NCc1ccccc1
inactive: [5] 96 % of control

Cc1c(C[N+](C)(C)C)c(=O)n(-c2ccccc2)n1C
inactive: [2] 104 % of control | [3] 98 % of control | [4] 98 % of control

From PubChem BioAssay AID248 (DTP/NCI, 2004)
